This test concerns SARS-CoV-2 variants, including Delta, BA.2.75, XBB.1.16, and KP.2. As to conditions: BA.2.75, XBB.1.16, and KP.2, 48 h.

Positions of bridges follow the written chain, without caps; N, C: chain ends. Non-standard residues stand in square brackets, D forms with d. Residues, ends and D or L forms follow the SMILES beside them. S5 = C=CCCC[C@](C)(N)C(=O)O

The compound `CC[C@H](C)[C@H](NC(=O)[C@H](C)NC(=O)[C@H](CCSC)NC(=O)[C@H](CCC(=O)O)NC(=O)[C@H](CC(=O)O)NC(=O)[C@H](CO)NC(=O)[C@H](CC(C)C)NC(=O)[C@H](CC(=O)O)NC(=O)[C@H](CC(C)C)NC(=O)[C@H](CC(C)C)NC(=O)[C@@H](NC(=O)[C@@H](NC(=O)[C@H](CC(N)=O)NC(=O)[C@@H](NC(=O)[C@H](CCCCN)NC(=O)[C@H](CO)NC(=O)[C@@H](NC(=O)[C@H](CCC(=O)O)NC(C)=O)[C@@H](C)CC)[C@@H](C)CC)C(C)C)[C@@H](C)O)C(=O)N[C@@H](CC(C)C)C(=O)N[C@@H](CC(C)C)C(=O)N[C@@]1(C)CCCC=CCCC[C@@](C)(C(=O)N[C@@H](CC(C)C)C(=O)N[C@@H](CC(N)=O)C(=O)N[C@@H](CC(=O)O)C(=O)N[C@@H](CO)C(=O)N[C@@H](Cc2ccc(O)cc2)C(=O)N[C@H](C(=O)N[C@@H](CC(=O)O)C(=O)N[C@@H](CC(C)C)C(=O)N[C@@H](CCCCN)C(=O)N[C@@H](CCC(=O)O)C(=O)N[C@@H](CC(C)C)C(N)=O)[C@@H](C)CC)NC(=O)[C@H](CCCCN)NC(=O)[C@H]([C@@H](C)CC)NC(=O)[C@H](C)NC1=O` [MjHKU4r-HR2P10] (Ac-EISKINVTLLDLSDEMAILL[S5]AIK[S5]LNDSYIDLKEL-NH2; staple 21-25) displayed an IC50 of 85.9 to 192 nM.

`CC[C@H](C)[C@H](NC(=O)[C@H](C)NC(=O)[C@H](CCSC)NC(=O)[C@H](CCC(=O)O)NC(=O)[C@H](CC(=O)O)NC(=O)[C@H](CO)NC(=O)[C@H](CC(C)C)NC(=O)[C@H](CC(=O)O)NC(=O)[C@H](CC(C)C)NC(=O)[C@H](CC(C)C)NC(=O)[C@@H](NC(=O)[C@@H](NC(=O)[C@H](CC(N)=O)NC(=O)[C@@H](NC(=O)[C@H](CCCCN)NC(=O)[C@H](CO)NC(=O)[C@@H](NC(=O)[C@H](CCC(=O)O)NC(C)=O)[C@@H](C)CC)[C@@H](C)CC)C(C)C)[C@@H](C)O)C(=O)N[C@@H](CC(C)C)C(=O)N[C@@H](CC(C)C)C(=O)N[C@@H](CCC(=O)O)C(=O)N[C@@H](C)C(=O)N[C@H](C(=O)N[C@@H](CCCCN)C(=O)N[C@@H](CCC(N)=O)C(=O)N[C@@H](CC(C)C)C(=O)N[C@@H](CC(N)=O)C(=O)N[C@@H](CC(=O)O)C(=O)N[C@@H](CO)C(=O)N[C@@H](Cc1ccc(O)cc1)C(=O)N[C@H](C(=O)N[C@@H](CC(=O)O)C(=O)N[C@@H](CC(C)C)C(=O)N[C@@H](CCCCN)C(=O)N[C@@H](CCC(=O)O)C(=O)N[C@@H](CC(C)C)C(N)=O)[C@@H](C)CC)[C@@H](C)CC` [MjHKU4r-HR2P9] came in with a half-inhibitory concentration (IC50) of 384 to 460 nM.

The values are drawn from article PMC12432378 (Cell Reports Medicine, 2025).
